Series [1] in a line: mn = molality of the nth substance listed, in mol/kg. The conditions noted are these: 298.15 K, 101 kPa, Liquid; for viscosity: Capillary tube (Ostwald / Ubbelohde) method; for mass density: Vibrating tube method.
The conditions of series [2]: 298.15 K, Liquid.
Series [3] is described as follows: refractive index (Na D-line) (dimensionless). The settings on record: 298.15 K; 101.33 kPa; Liquid; Standard Abbe refractometry.

Numbers after ± are expanded uncertainties.

Consider six molecules from the NIST ThermoML archive (doi:10.1021/je200872n).

For the molecule `Oc1ccccc1C=Nc1ccccc1N=Cc1ccccc1O` [2,2'-[1,2-phenylenebis(nitrilomethylidyne)]bis-phenol] + CN(C)C=O, the viscosity – broadly, the resistance of a fluid to flow – in series [1] (m1 = 0.01) was found to be 0.802 ± 0.008 mPa·s; in series [1] (m1 = 0.0302), 0.818 ± 0.008 mPa·s; in series [1] (m1 = 0.0505), 0.833 ± 0.008 mPa·s; in series [1] (m1 = 0.0698), 0.847 ± 0.008 mPa·s; in series [1] (m1 = 0.0851) it was 0.859 ± 0.008 mPa·s; in series [1] (m1 = 0.1098), 0.878 ± 0.008 mPa·s. Besides, the results for the viscosity in series [1] (m1 = 0.1268), in series [1] (m1 = 0.1507) and in series [1] (m1 = 0.1705) were 0.89 ± 0.008 mPa·s, 0.905 ± 0.008 mPa·s and 0.919 ± 0.008 mPa·s, respectively. Moreover, the mass density (as a rule, mass per unit of volume) was 946.01 ± 0.46 kg/m3 in series [1] (m1 = 0.0295); 947.47 ± 0.46 kg/m3 in series [1] (m1 = 0.051); 948.75 ± 0.46 kg/m3 in series [1] (m1 = 0.0697); 950.08 ± 0.46 kg/m3 in series [1] (m1 = 0.0894); 951.51 ± 0.46 kg/m3 in series [1] (m1 = 0.1106); 952.82 ± 0.46 kg/m3 in series [1] (m1 = 0.1299). Also, the results for the mass density in series [1] (m1 = 0.1465), in series [1] (m1 = 0.1701) and in series [1] (m1 = 0.1898) were 953.94 ± 0.46 kg/m3, 955.51 ± 0.46 kg/m3 and 956.83 ± 0.46 kg/m3, respectively.
Consider `CCCCCn1cc[n+](C)c1.[Br-]` [1-pentyl-3-methylimidazolium bromide] + CN(C)C=O, for which the mass density in series [1] (m1 = 0.026) was found to be 947.47 ± 0.46 kg/m3; in series [1] (m1 = 0.0508) it was 949.26 ± 0.46 kg/m3; in series [1] (m1 = 0.0747) it was 950.79 ± 0.46 kg/m3.
For `CCCCn1cc[n+](C)c1.[Br-]` [1-butyl-3-methylimidazolium bromide] + CN(C)C=O, the mass density in series [1] (m1 = 0.1012) was determined as 951.01 ± 0.46 kg/m3; in series [1] (m1 = 0.1527), 954.4 ± 0.46 kg/m3; in series [1] (m1 = 0.197) it was 957.2 ± 0.46 kg/m3.
As for `CN(C)C=O` [dimethylformamide], the mass density in series [2] (101 kPa, Vibrating tube method) was 944 ± 0.46 kg/m3. In addition, in series [2] (101.33 kPa, Capillary tube (Ostwald / Ubbelohde) method), the viscosity is reported as 0.805 ± 0.008 mPa·s. Moreover, the refractive index (usually the speed of light in vacuum divided by its phase velocity in the sample) in series [3] was determined as 1.4281 ± 0.0004.
Turning to `CCC[n+]1ccn(C)c1.[Br-]` [1-methyl-3-propylimidazolium bromide] + CN(C)C=O, the results for the mass density in series [1] (m1 = 0.03), in series [1] (m1 = 0.0789) and in series [1] (m1 = 0.122) were 946.19 ± 0.46 kg/m3, 949.63 ± 0.46 kg/m3 and 952.52 ± 0.46 kg/m3, respectively.
Consider `CCCCCCn1cc[n+](C)c1.[Br-]` [3-hexyl-1-methyl-1H-imidazolium bromide] + CN(C)C=O, for which the mass density in series [1] (m1 = 0.0245) is recorded as 945.76 ± 0.46 kg/m3; in series [1] (m1 = 0.0738), 948.9 ± 0.46 kg/m3; in series [1] (m1 = 0.1205) it was 951.72 ± 0.46 kg/m3.
